Among the data in ChEMBL document CHEMBL3132853, “Facile synthesis of a polyether-tethered dimeric berberine as a highly effective DNA-cleaving agent in the presence of Cu(ii) ion” (Medchemcomm, 2013) are K, Activity and Kmax values, retold here.

Experiment [1] concerns DNA. Description: Binding affinity to calf thymus DNA. The class given is nucleic-acid assay. The following applies: Bos taurus.
Experiment [2] has as its system Escherichia coli. The experiment in a line: Induction of Escherichia coli pBR322 DNA cleavage assessed as conversion of supercoiled form into open circular form after 5 hrs by agarose gel electrophoresis in presence of Cu2+.
Experiment [3] deals with Escherichia coli. Description: Induction of Escherichia coli pBR322 DNA cleavage at 0.06 mM after 5 hrs by agarose gel electrophoresis in presence of Cu2+ and KI.
Experiment [4] concerns Escherichia coli. The experiment in a line: Induction of Escherichia coli pBR322 DNA cleavage at 0.06 mM after 5 hrs by agarose gel electrophoresis in presence of Cu2+ and t-BuOH.
The subject of experiment [5] is Escherichia coli. Description: Induction of Escherichia coli pBR322 DNA cleavage at 0.06 mM after 5 hrs by agarose gel electrophoresis in presence of Cu2+ and DMSO.
The subject of experiment [6] is Escherichia coli. Description: Induction of Escherichia coli pBR322 DNA cleavage at 0.06 mM after 5 hrs by agarose gel electrophoresis in presence of Cu2+ and TMP.
In experiment [7] the test system is DNA. The experiment in a line: Binding affinity to calf thymus DNA in presence of Cu2+. The class given is nucleic-acid assay. The following applies: Bos taurus.
The test system of experiment [8] is Escherichia coli. The experiment in a line: Induction of Escherichia coli pBR322 DNA cleavage assessed as maximal catalytic rate constant at 0.12 mM by agarose gel electrophoresis in presence of Cu2+.
In experiment [9] the test system is Escherichia coli. Description: Induction of Escherichia coli pBR322 DNA cleavage at 0.08 mM after 5 hrs by agarose gel electrophoresis.
In experiment [10] the test system is Escherichia coli. The experiment in a line: Induction of Escherichia coli pBR322 DNA cleavage at 0.01 to 0.08 mM after 5 hrs by agarose gel electrophoresis in presence of Cu2+.
The test system of experiment [11] is Escherichia coli. Description: Induction of Escherichia coli pBR322 DNA cleavage at Cu2+ to compound ratio >= 1 after 5 hrs by agarose gel electrophoresis.
Experiment [12] has as its system Escherichia coli. Description: Induction of Escherichia coli pBR322 DNA cleavage assessed as conversion of supercoiled form into linear form after 5 hrs by agarose gel electrophoresis in presence of Cu2+.
Experiment [13] concerns Escherichia coli. The experiment in a line: Induction of Escherichia coli pBR322 DNA cleavage assessed as conversion of supercoiled form into open circular form after 5 hrs by agarose gel electrophoresis in presence of Ni2+.
Experiment [14] concerns Escherichia coli. The experiment in a line: Induction of Escherichia coli pBR322 DNA cleavage assessed as conversion of supercoiled form into open circular form after 5 hrs by agarose gel electrophoresis in presence of Mn2+.
Experiment [15] relates to Escherichia coli. The experiment in a line: Induction of Escherichia coli pBR322 DNA cleavage assessed as conversion of supercoiled form into open circular form after 5 hrs by agarose gel electrophoresis in presence of Zn2+.
In experiment [16] the test system is Escherichia coli. The experiment in a line: Induction of Escherichia coli pBR322 DNA cleavage assessed as conversion of supercoiled form into open circular form after 5 hrs by agarose gel electrophoresis in presence of Mg2+.
Experiment [17] concerns Escherichia coli. Description: Induction of Escherichia coli pBR322 DNA cleavage assessed as conversion of supercoiled form into open circular form after 5 hrs by agarose gel electrophoresis in presence of Co2+.

Calls of active or inactive are those of the source. No cut-off for these calls is given here.

Regarding `COc1ccc2cc3[n+](cc2c1OCCCOc1c(OC)ccc2cc4[n+](cc12)CCc1cc2c(cc1-4)OCO2)CCc1cc2c(cc1-3)OCO2`, the K in [1] came to 1.15 ×10⁵ /M. The outcome in experiment [2] was inactive.
In the case of `COCCOCCOCCOCCOc1c(OC)ccc2cc3[n+](cc12)CCc1cc2c(cc1-3)OCO2`, the K in experiment [1] amounted to 1.46 ×10³ /M. Moreover, in experiment [2], the outcome was inactive.
With `COc1ccc2cc3[n+](cc2c1OC)CCc1cc2c(cc1-3)OCO2`, in experiment [1], the K was 8.99 ×10³ /M.
As to `COc1ccc2cc3[n+](cc2c1OCCOCCOCCOCCOc1c(OC)ccc2cc4[n+](cc12)CCc1cc2c(cc1-4)OCO2)CCc1cc2c(cc1-3)OCO2`, the result in [3], in experiment [9], in experiment [13], in experiment [14], in [15] and in experiment [16] was inactive. Besides, the result in experiment [17] was inactive. Besides, the result in [4], in [5], in experiment [6], in [10], in experiment [11] and in experiment [12] was Active. Further, the result in experiment [2] was Active. Further, the K in experiment [7] was found to be 2.38 ×10⁴ /M; in experiment [1], 1.51 ×10⁴ /M. For the same compound, the Kmax in experiment [8] is 125 h⁻¹.
